Legend:
[1] = molecular target: ADA (Homo sapiens, UniProt P00813); conditions: DBS eluate, substrate 1.0 μmol/L, 37° C., 30 minutes or more
Method: A 3.2 mm DBS sample was punched into the designated well of a 96 multi-well filter plate (Pall Corp, Ann Arbor, Mich., USA) and eluted using 120 μl of water by shaking at 650 rpm (24° C. for 30 min). After filtration under vacuum, two 40 μl portions of the eluate were dispensed into two 2 ml microtubes (Axygen, Union City, Calif., USA) and labeled Test and Blank. To the tube labeled Test, 10 μl of 10 μmol/l of EHNA in water were added whereas water (10 μl) was added to Blank tubes. The tubes were vortexed for 10 sec and allowed to sit at room temperature for 5 min. To each tube, 50 μl 2 mmol/L ammonium acetate containing 1 μmol/L of ^13C10, ^15N5 Ado and ^15N5 dAdo were added as ADA substrates. The mixture was incubated at 37° C. with shaking (20 rpm). After 30 minutes, the enzymatic reaction was stopped by adding 400 μl of acetonitrile containing ^13C5 Ado (0.125 μmol/L) and the mixture was vortexed for 30 sec. […] The enzyme activity expressed as pmol of residual substrate per DBS was measured by calculating the difference of ^13C10, ^15N5 Ado and ^15N5 dAdo in Test and Blank after the enzymatic reaction.
ADA activity assay conditions were determined by monitoring the enzyme reaction (up to 60 min), substrate concentration (1-10 μmol/L), EHNA concentration (2.5-160 NM) and incubation temperature (30-60° C.).

[2] = Stability of purine metabolites in DBS on storage; assay type: physicochemical; conditions: 5 and 25 μmol/L in DBS, stored 4.5 weeks at −20° C., 23° C. (ambient) and 30° C.
Method: Stability of purine metabolites in DBS was assessed by storing spiked samples (5 and 25 μmol/L) at various temperatures (ambient, −20° C. and 30° C.). Analysis was carried out as described over a period of […].
Analysis of DBS specimens containing Ado, dAdo, Gua and dGua at 5 and 25 μmol/L stored for a period of 4.5 weeks at −20° C., 23° C.

[3] = Loss of standard purines added to whole blood (residual ADA activity); assay type: in vitro ADME; conditions: whole blood without EHNA
Method: DBS calibrators could not be prepared in this work due to residual ADA activity that persisted after traditional enzyme deactivation treatments such as freeze-thawing or heating whole blood at 45° C. for 24 hours. EHNA, a specific ADA inhibitor, was added to whole blood to prevent the deamination of Ado and dAdo to inosine and deoxyinosine, respectively. Purine metabolites were extracted from 3.2 mm dried calibrators or DBS specimens using an aqueous solution of 70% methanol (v/v) containing isotope labeled IS. This solution was added directly into a 96-well plate containing samples and incubated at 37° C. with shaking (650 rpm). The extraction yield reached its maximum at 15 minutes or more. The following experiments therefore were performed at 37° C. for 15 min. Purine metabolites were stable for at least 24 h when stored in a tightly sealed vial at 8° C.
SCID newborn screening began in the United States following the recent addition of this condition to the uniform panel as recommended by the US Department of Health and Human Services. In Canada, Ontario was the first jurisdiction to screen for SCID, which began in August, 2013. TREC analysis is the primary screening method and can be achieved by real-time PCR using neonatal DBS, the sample of choice for newborn screening. However, TREC analysis is inadequate to provide additional information regarding the etiology of SCID. […]

Sequence of ADA (P00813 whole entry): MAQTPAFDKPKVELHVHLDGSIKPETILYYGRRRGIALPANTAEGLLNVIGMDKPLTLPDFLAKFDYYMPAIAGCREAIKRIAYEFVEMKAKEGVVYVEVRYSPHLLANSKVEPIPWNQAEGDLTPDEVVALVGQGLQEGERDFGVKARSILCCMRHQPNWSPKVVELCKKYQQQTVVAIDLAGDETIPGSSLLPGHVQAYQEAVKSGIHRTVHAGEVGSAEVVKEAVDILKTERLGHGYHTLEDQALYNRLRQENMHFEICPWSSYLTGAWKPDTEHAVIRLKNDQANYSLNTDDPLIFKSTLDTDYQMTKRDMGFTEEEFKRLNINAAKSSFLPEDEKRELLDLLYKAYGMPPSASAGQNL

| Molecule | Optimum EHNA concentration for ADA activity measurements [1] [µM] | Stability in DBS specimens [2] | Stability on adding standard purines to whole blood [3] |
| --- | --- | --- | --- |
| erythro-9-(2-hydroxy-3-nonyl) adenine [EHNA] | ≥ 10 | – | – |
| Nc1nc2c(ncn2[C@@H]2O[C@H](CO)[C@@H](O)[C@H]2O)c(=O)[nH]1 [Gua, guanosine] | – | stable | – |
| Nc1nc2c(ncn2[C@H]2C[C@H](O)[C@@H](CO)O2)c(=O)[nH]1 [dGua, deoxyguanosine] | – | stable | – |
| Nc1ncnc2c1ncn2[C@H]1C[C@H](O)[C@@H](CO)O1 [dAdo, deoxyadenosine] | – | stable | immediate loss |
| Nc1ncnc2c1ncn2[C@@H]1O[C@H](CO)[C@@H](O)[C@H]1O [Ado, adenosine] | – | stable | immediate loss |

Source: patent US20170283850A1, “METHODS OF DETECTING ADENOSINE DEAMINASE DEFICIENCY” (CHILDREN'S HOSPITAL OF EASTERN ONTARIO, priority 2014, published 2017)
